TGI and GI50 data for 13 compounds are collected here from PubChem BioAssay (NCI).

SMILES strings stand for the structures. Several values for one entry are separate records, joined by “and”; a condition that tells them apart may be missing. Equal values may be shown once.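 These data come from cells grown in 96-well plates and exposed to compound for 48 hours at five concentrations. Abbreviation: GI50, concentration required for 50% inhibition of growth. TGI marks complete inhibition of growth.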 A value given as a limit tells only on which side of the number the result lay.

Common to all, as to assay: inhibition of tumour cell growth, NCI panel, 48 h
For assay [1], the system named is HCC-2998 colon.
In assay [2] the test system is CCRF-CEM leukemia.
The subject of assay [3] is EKVX NSCLC.
Assay [4] concerns K-562 leukemia.
For assay [5], the system named is NCI-H460 lung.
For assay [6], the system named is T-47D breast.
In assay [7] the test system is UACC-62 melanoma.
Assay [8] relates to NCI/ADR-RES ovarian.
The test system of assay [9] is SK-OV-3 ovarian.
Assay [10] has as its system MCF7 breast.
Assay [11] concerns CAKI-1 renal.

For the compound `CC(=O)O[C@H]1C[C@]2(C)C(CCC3O[C@@]32C)[C@@]2(CC(c3ccoc3)OC2O)[C@@H]1C` (stereo partly specified), the TGI in assay [1] was more than 100 µM; in assay [2], 88.3 µM; in [3], more than 100 µM; in assay [4], more than 100 µM; in assay [5], more than 100 µM; in [6], more than 100 µM. Moreover, the TGI in assay [7], in assay [8], in assay [9], in assay [10] and in assay [11] was more than 100 µM each time.
For `CCCNC(=S)N/N=C/c1cccc(C)n1`, the TGI is more than 100 µM in assay [1]; 7.05 µM in assay [2]; more than 100 µM in assay [3]; 77.5 µM in assay [4]; more than 100 µM in assay [6]; 57 µM in assay [7]. In addition, the TGI in [8], in assay [9] and in [10] was more than 100 µM in each case.
As for `O=C1c2ccccc2CC12Cc1cc3c(cc1C2=O)CCC3` (stereo unspecified), the TGI in assay [1], in assay [2], in assay [3], in [4], in [5] and in assay [6] was more than 100 µM each time. Also, the TGI in assay [8], in assay [9], in assay [10] and in assay [11] was more than 100 µM each time.
Consider `COc1cc(N=NN(C)C)c(C(C)c2c3cc(OC)c(OC)cc3cc[n+]2C)cc1OC` (stereo unspecified), for which the TGI in [1] was more than 100 µM; in assay [2] it was more than 100 µM; in [3], more than 100 µM; in assay [4], more than 100 µM; in assay [5], more than 100 µM; in assay [6], 76.2 µM. The TGI in [7] is 59.5 µM; in assay [8], more than 100 µM; in assay [9], more than 100 µM; in assay [10], more than 100 µM; in assay [11], more than 100 µM.
`O=C1CCCc2c1c1c(n2Cc2ccccc2)-c2ccccc2C1=O`: the TGI is 30.3 µM in [1]; more than 100 µM in assay [2]; 91.3 µM in assay [3]; 46.6 µM in assay [4]; more than 100 µM in assay [5]; 33.3 µM in assay [6]. Also, the TGI in assay [7] is 44.9 µM; in [8], 50.1 µM; in assay [9], more than 100 µM; in [10], more than 100 µM; in assay [11], 46.2 µM.
As for `CC[C@@]1(O)C(=O)OCc2c1cc1n(c2=O)Cc2c-1nc1ccccc1c2CC[Si](C)(C)C`, the TGI in assay [1] was 0.713 µM; in [3], more than 100 µM; in [4], more than 100 µM; in assay [5] it was less than 0.0335 µM; in assay [6], more than 27.7 µM; in assay [7], 0.176 µM. The TGI in assay [8] is more than 100 µM; in [9], 14 µM; in assay [10], more than 100 µM; in assay [11], 0.207 µM.
Take `OCCN(CCO)c1ccc2c(C(F)(F)F)cc(C(F)(F)F)nc2n1`: the TGI in [1], in [2], in [3], in assay [4], in [5] and in [6] was more than 100 µM throughout. The TGI in assay [7], in assay [8], in [9], in assay [10] and in assay [11] was more than 100 µM each time.
For the compound `COc1cc([C@@H]2c3cc4c(cc3[C@@H](NCCNCCO)[C@H]3COC(=O)[C@H]23)OCO4)cc(OC)c1O`, the GI50 in assay [1] is 3.39 µM and 1.58 µM; in assay [2] it was 0.123 µM; in assay [3], 5.36 µM and 13 µM; in assay [4], 1.45 µM; in [10] it was 0.183 µM and 0.0876 µM. Besides, the TGI is 32.2 µM and 12.1 µM in assay [1]; 0.567 µM and 0.695 µM in assay [2]; more than 100 µM in assay [3]; more than 100 µM in [4]; 4.49 µM and 3.1 µM in assay [5]; 11.9 µM and 8.93 µM in assay [6]. Further, the TGI in assay [7] is 5.34 µM and 3.61 µM; in assay [8], more than 100 µM; in assay [9], 12.4 µM and 8.25 µM; in assay [10], more than 36.7 µM; in assay [11], 30.1 µM and > 59.5 µM.
Regarding `O=C1NC2(CCCCC2)N=C2C(Cl)CCCC12Cl` (stereo unspecified), the TGI in [1], in assay [2], in assay [3], in assay [4], in [5] and in [6] was more than 100 µM in each case. Further, the TGI in assay [7], in assay [8], in assay [9] and in assay [10] was more than 100 µM throughout.
As to `CC(=O)Nc1ncc(Sc2ccccc2C(=O)O)s1`, the TGI in assay [2], in assay [3], in assay [4], in assay [5], in assay [6] and in [7] was more than 100 µM in each case. In addition, the TGI in [8], in assay [10] and in [11] was more than 100 µM throughout.
On to `O=C(/C=C/c1ccc(O)c(O)c1)OCCc1cccc2ccccc12`, for which the TGI in assay [1] worked out at 23.4 µM; in [2] it was 11.2 µM; in assay [4], 9.08 µM; in assay [5], 29.9 µM; in [6], 42.3 µM; in assay [7], 15 µM. Moreover, the TGI in assay [8] was found to be 29.4 µM; in assay [10], 25.7 µM; in [11] it was 20.7 µM.
With `O=C1c2cc3ccccc3cc2C2(c3ccc(Cl)cc3)N[C@H]3CCCC[C@@H]3N12` (stereo partly specified), the TGI in [2] is more than 100 µM; in [3] it was 26.8 µM; in assay [4], more than 100 µM; in assay [5] it was 47.3 µM; in [6], 52.7 µM; in assay [7], 35.2 µM. Also, the TGI in assay [8] stood at 41.6 µM; in [9], 31.9 µM; in assay [10], 84.9 µM; in [11], 70.3 µM.
Regarding `COc1ccc(/C=C2\CSC/C(=C\c3ccc(OC)c(OC)c3OC)C2=O)c(OC)c1OC`, the TGI in assay [2] was more than 100 µM; in assay [3], more than 100 µM; in assay [4], more than 100 µM; in assay [5] it was more than 100 µM; in assay [6], more than 100 µM; in [7], 30.4 µM. Further, the TGI in assay [8], in [9] and in assay [10] was more than 100 µM each time.
